Measured values as given in PubChem BioAssay AID1259411 (Chemical Carcinogenesis Research Information System (CCRIS), 2018).
The source made the active and inactive calls. The rule behind the calls is not given here.

Test system: rodent carcinogenicity bioassays, tumor incidence
Experiment: CCRIS carcinogenicity studies
Method in brief: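 NCI-built, expert-reviewed records of carcinogenicity and related test outcomes (mutagenicity, tumor promotion/inhibition) compiled from published and report sources, historical span 1985-2011, not updated.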

`Nc1ccc2nc3ccccn3c2n1` was tested. Which carcinogen call (Species: MOUSE, Strain/Sex: CDF1/FEMALE, Route: ORAL, Dose: 0, 0.05% IN DIET FOR UP TO 685 D (STUDY DURATION: 685 D), Tumor Site: Type of Lesion: LIVER: HEPATOCELLULAR ADENOMA OR CARCINOMA, BLOOD VESSELS: HEMANGIOENDOTHELIOMA OR HEMANGIOENDOTHELIAL SARCOMA) did it give?
The carcinogen call was “active; positive”.

What about the carcinogen call (Species: MOUSE, Strain/Sex: CDF1/MALE, Route: ORAL, Dose: 0, 0.05% IN DIET FOR UP TO 685 D (STUDY DURATION: 685 D), Tumor Site: Type of Lesion: LIVER: HEPATOCELLULAR ADENOMA OR CARCINOMA, BLOOD VESSELS: HEMANGIOENDOTHELIOMA OR HEMANGIOENDOTHELIAL SARCOMA) of the same compound?
Its carcinogen call is “active; positive”.

And the carcinogen call (Species: RAT, Strain/Sex: F344/FEMALE, Route: ORAL, Dose: 0, 500 PPM IN DIET (AV DAILY DOSE: 4.9 MG) FOR 24 MO (STUDY DURATION: 104 WK), Tumor Site: Type of Lesion: SMALL INTESTINE: ADENOMA OR ADENOCARCINOMA OR MUCINOUS CARCINOMA, LARGE INTESTINE: ADENOMA OR ADENOCARCINOMA OR MUCINOUS)?
Its carcinogen call is “active; positive”.

What about the carcinogen call (Species: RAT, Strain/Sex: F344/MALE, Route: ORAL, Dose: 0, 500 PPM IN DIET (AV DAILY DOSE: 7.5 MG) FOR 24 MO (STUDY DURATION: 104 WK), Tumor Site: Type of Lesion: LIVER: HEPATOCELLULAR CARCINOMA OR ANAPLASTIC HEPATOMA, SMALL INTESTINE: ADENOMA OR ADENOCARCINOMA OR MUCINOUS CARCINOMA) of the same compound?
The carcinogen call was “active; positive”.

With `CNC(=O)Oc1cccc2c1OC(C)(C)C2` as the compound, how does the carcinogen call (Species: MOUSE, Strain/Sex: ICR/FEMALE, Route: ORAL, Dose: 0, 3, 8 PPM IN DRINKING WATER FOR 12 MO (STUDY DURATION: 12 MO), Dose: 0, 3, 8 PPM IN DRINKING WATER FOR 12 MO (STUDY DURATION: 12 MO)) read?
Its carcinogen call is “inactive; negative”.

What about the carcinogen call (Species: MOUSE, Strain/Sex: ICR/MALE, Route: ORAL, Dose: 0, 3, 8 PPM IN DRINKING WATER FOR 12 MO (STUDY DURATION: 12 MO), Dose: 0, 3, 8 PPM IN DRINKING WATER FOR 12 MO (STUDY DURATION: 12 MO)) of the same compound?
Its carcinogen call is “inactive; negative”.

And the carcinogen call (Species: Mouse, Strain/Sex: Charles River CD-1/Female (60/group), Route: Oral, Dose: 0, 20, 125, 500 ppm in diet for 2 yrs, Dose: 0, 20, 125, 500 ppm in diet for 2 yrs)?
The carcinogen call was “inactive; negative (study details not given in source; purity 95.6%)”.

And the carcinogen call (Species: Mouse, Strain/Sex: Charles River CD-1/Male (60/group), Route: Oral, Dose: 0, 20, 125, 500 ppm in diet for 2 yrs, Dose: 0, 20, 125, 500 ppm in diet for 2 yrs)?
Its carcinogen call is “inactive; negative (study details not given in source; purity 95.6%)”.

And the carcinogen call (Species: Rat, Strain/Sex: Charles River CD/Female (60/group), Route: Oral, Dose: 0, 10, 20, 100 ppm in diet for 2 yrs, Dose: 0, 10, 20, 100 ppm in diet for 2 yrs)?
The carcinogen call was “inactive; negative (study details not given in source; purity 95.6%)”.

And the carcinogen call (Species: Rat, Strain/Sex: Charles River CD/Male (60/group), Route: Oral, Dose: 0, 10, 20, 100 ppm in diet for 2 yrs, Dose: 0, 10, 20, 100 ppm in diet for 2 yrs)?
Its carcinogen call is “inactive; negative (study details not given in source; purity 95.6%)”.

For `[P]#[In]`, which carcinogen call (Species: MOUSE, Strain/Sex: B6C3F1/FEMALE, Route: INHALATION, Dose: 0, 0.03, 0.1, 0.3 MG/M3 AEROSOL FOR 6 HR/D 5 D/WK FOR 105 WK (CONTROL AND LOW DOSE GROUPS) OR 21 WK (MID AND HIGH DOSE G, Dose: 0, 0.03, 0.1, 0.3 MG/M3 AEROSOL FOR 6 HR/D 5 D/WK FOR 105 WK (CONTROL AND LOW DOSE GROUPS) OR 21 WK (MID AND HIGH DOSE G, Tumor Site: Type of Lesion: LIVER: HEPATOCELLULAR ADENOMA, HEPATOCELLULAR CARCINOMA, HEPATOCELLULAR ADENOMA OR CARCINOMA, LUNG: ALVEOLAR/BRONCHIOLAR) is on record?
The carcinogen call was “active; positive”.

What about the carcinogen call (Species: MOUSE, Strain/Sex: B6C3F1/MALE, Route: INHALATION, Dose: 0, 0.03, 0.1, 0.3 MG/M3 AEROSOL FOR 6 HR/D 5 D/WK FOR 105 WK (CONTROL AND LOW DOSE GROUPS) OR 21 WK (MID AND HIGH DOSE G, Dose: 0, 0.03, 0.1, 0.3 MG/M3 AEROSOL FOR 6 HR/D 5 D/WK FOR 105 WK (CONTROL AND LOW DOSE GROUPS) OR 21 WK (MID AND HIGH DOSE G, Tumor Site: Type of Lesion: LIVER: HEPATOCELLULAR ADENOMA, HEPATOCELLULAR CARCINOMA, HEPATOCELLULAR ADENOMA OR CARCINOMA, LUNG: ALVEOLAR/BRONCHIOLAR) of the same compound?
Its carcinogen call is “active; positive”.

And the carcinogen call (Species: RAT, Strain/Sex: F344/FEMALE, Route: INHALATION, Dose: 0, 0.03, 0.1, 0.3 MG/M3 AEROSOL FOR 6 HR/D 5 D/WK FOR 105 WK (CONTROL AND LOW DOSE GROUPS) OR 22 WK (MID AND HIGH DOSE G, Dose: 0, 0.03, 0.1, 0.3 MG/M3 AEROSOL FOR 6 HR/D 5 D/WK FOR 105 WK (CONTROL AND LOW DOSE GROUPS) OR 22 WK (MID AND HIGH DOSE G, Tumor Site: Type of Lesion: ADRENAL MEDULLA: BENIGN PHEOCHROMOCYTOMA, LUNG: ALVEOLAR/BRONCHIOLAR ADENOMA, ALVEOLAR/BRONCHIOLAR CARCINOMA, ALVEOLAR/B)?
Its carcinogen call is “active; positive”.

What about the carcinogen call (Species: RAT, Strain/Sex: F344/MALE, Route: INHALATION, Dose: 0, 0.03, 0.1, 0.3 MG/M3 AEROSOL FOR 6 HR/D 5 D/WK FOR 105 WK (CONTROL AND LOW DOSE GROUPS) OR 22 WK (MID AND HIGH DOSE G, Dose: 0, 0.03, 0.1, 0.3 MG/M3 AEROSOL FOR 6 HR/D 5 D/WK FOR 105 WK (CONTROL AND LOW DOSE GROUPS) OR 22 WK (MID AND HIGH DOSE G, Tumor Site: Type of Lesion: ADRENAL MEDULLA: BENIGN PHEOCHROMOCYTOMA, BENIGN OR MALIGNANT PHEOCHROMOCYTOMA, LUNG: ALVEOLAR/BRONCHIOLAR ADENOMA, ALVE) of the same compound?
The carcinogen call was “active; positive”.

With `c1ccc2nc3ccc4ccccc4c3cc2c1` as the compound, how does the carcinogen call (Species: RAT, Strain/Sex: OSBORNE-MENDEL/FEMALE, Route: LUNG IMPLANT, Dose: 0, 0.2, 1.0, 5.0 MG IN BEESWAX/TRICAPRYLIN (STUDY DURATION: LIFETIME), Dose: 0, 0.2, 1.0, 5.0 MG IN BEESWAX/TRICAPRYLIN (STUDY DURATION: LIFETIME)) read?
The carcinogen call was “inactive; negative”.

For `CC(=O)O[C@]1(C(C)=O)CC[C@H]2[C@@H]3C=C(Cl)C4=CC(=O)CC[C@]4(C)[C@H]3CC[C@@]21C`, which carcinogen call (Species: DOG, Route: ORAL, Tumor Site: Type of Lesion: MAMMARY GLAND) is on record?
The carcinogen call was “active; positive”.

How did the carcinogen call (Species: MOUSE, Strain/Sex: B6C3F1/FEMALE, Route: ORAL, Dose: 0, 0.001, 0.004, 0.01% IN DIET FOR 24 MO (STUDY DURATION: 24 MO), Dose: 0, 0.001, 0.004, 0.01% IN DIET FOR 24 MO (STUDY DURATION: 24 MO)) turn out when `CNCCC(Oc1ccc(C(F)(F)F)cc1)c1ccccc1` (centres undefined) was run?
The carcinogen call was “inactive; negative”.

And the carcinogen call (Species: MOUSE, Strain/Sex: B6C3F1/MALE, Route: ORAL, Dose: 0, 0.001, 0.004, 0.01% IN DIET FOR 24 MO (STUDY DURATION: 24 MO), Dose: 0, 0.001, 0.004, 0.01% IN DIET FOR 24 MO (STUDY DURATION: 24 MO))?
Its carcinogen call is “inactive; negative”.

And the carcinogen call (Species: RAT, Strain/Sex: F344/FEMALE, Route: ORAL, Dose: 0, 0.001, 0.0045, 0.02% IN DIET FOR 24 MO (STUDY DURATION: 24 MO), Dose: 0, 0.001, 0.0045, 0.02% IN DIET FOR 24 MO (STUDY DURATION: 24 MO))?
The carcinogen call was “inactive; negative”.

And the carcinogen call (Species: RAT, Strain/Sex: F344/MALE, Route: ORAL, Dose: 0, 0.001, 0.0045, 0.02% IN DIET FOR 24 MO (STUDY DURATION: 24 MO), Dose: 0, 0.001, 0.0045, 0.02% IN DIET FOR 24 MO (STUDY DURATION: 24 MO))?
Its carcinogen call is “inactive; negative”.

What does the source list for `COc1ccc(OC(=O)N(CC(=O)O)Cc2ccc(OCCc3nc(-c4ccccc4)oc3C)cc2)cc1`?
carcinogen call (Species: Mouse, Strain/Sex: Crl:CD-1 (ICR)BR/Female (60/group), Route: Oral, Dose: 0, 1, 5, 20 mg/kg (initial group) or 0, 40 mg/kg (supplemental group) by gavage daily for up to 105 wks, vehicle cont, Dose: 0, 1, 5, 20 mg/kg (initial group) or 0, 40 mg/kg (supplemental group) by gavage daily for up to 105 wks, vehicle cont): inactive; negative (slight increases in hemangiosarcoma (multiple organs) and mammary glan; carcinogen call (Species: Mouse, Strain/Sex: Crl:CD-1 (ICR)BR/Male (60/group), Route: Oral, Dose: 0, 1, 5, 20 mg/kg (initial group) or 0, 40 mg/kg (supplemental group) by gavage daily for up to 105 wks, vehicle cont, Dose: 0, 1, 5, 20 mg/kg (initial group) or 0, 40 mg/kg (supplemental group) by gavage daily for up to 105 wks, vehicle cont, Tumor Site: Type of Lesion: GALLBLADDER: adenoma (1/60 at 20 mg/kg, 2/60 at 40 mg/kg), not significant): inactive; negative (although statistical significance was not obtained, the authors consid; carcinogen call (Species: Rat, Strain/Sex: Hsd:Sprague Dawley SD/Female (65/group), Route: Oral, Dose: 0, 1, 5, 30, 50 mg/kg by gavage daily for up to 105 wks, vehicle controls administered alkaline PEG-400, Dose: 0, 1, 5, 30, 50 mg/kg by gavage daily for up to 105 wks, vehicle controls administered alkaline PEG-400, Tumor Site: Type of Lesion: SUBCUTANEOUS TISSUE: lipoma (50 mg/kg only). UTERUS: Squamous cell carcinoma, adenoma and carcinoma, and squamous cell p, Tumor Site: Type of Lesion: SUBCUTANEOUS TISSUE: lipoma (50 mg/kg only). UTERUS: Squamous cell carcinoma, adenoma and carcinoma, and squamous cell p): active; positive (weak response); carcinogen call (Species: Rat, Strain/Sex: Hsd:Sprague Dawley SD/Male (65/group), Route: Oral, Dose: 0, 1, 5, 30, 50 mg/kg by gavage daily for up to 105 wks, vehicle controls administered alkaline PEG-400, Dose: 0, 1, 5, 30, 50 mg/kg by gavage daily for up to 105 wks, vehicle controls administered alkaline PEG-400, Tumor Site: Type of Lesion: URINARY BLADDER: transitional cell carcinoma and papilloma at 5, 30, and 50 mg/kg associated with increased urinary soli): active; positive, muraglitazar reported to be a peroxisome proliferator-activated recept
